Measured values reported in patent US20150224177A1 (priority 2014, published 2015).
In brackets after ≈: the same amount, converted by molar mass. Where two headings read alike, the source gives them in different places.

Columns and labels:
Burkholderia mallei = test: microbe, parasite or virus in culture; type: cell-based; details: for MIC: Burkholderia mallei
B. pseudomallei isolates = test: microbe, parasite or virus in culture; type: cell-based, Burkholderia pseudomallei
Bacillus anthracis = type: cell-based
[1] = tested on: B. pseudomallei strains 1026b and MSHR 305; type: cell-based, Burkholderia pseudomallei
Yersinia pestis = test: microbe, parasite or virus in culture; type: cell-based; details: for MIC: Yersinia pestis
[2] = read-out: MIC values (limit of detection) for OSCN^− with and without bLF
[3] = read-out: Minimal Inhibitory Concentration

SMILES: N#CSO [OSCN^−, hypothiocyanite]
- inhibition of growth, result in words (Burkholderia mallei): very effective against both strains tested
- MIC (Burkholderia mallei; [2]): ≤ 25.9 µg/mL
- MIC (Burkholderia mallei; [3]): ≤ 25.9 µg/mL
- concentration of OSCN^− alone that inhibited all isolates (B. pseudomallei isolates): less than 63.3 μg/mL
- inhibition of growth, overall result in words (B. pseudomallei isolates): effective in vitro to inhibit the growth
- MIC (B. pseudomallei isolates; Burkholderia pseudomallei, NCTC13392, read-out: Minimal Inhibitory Concentration): 48.7 to 61.2 µg/mL (≈ 649 to 815 µM)
- inhibition of growth, result in words (Bacillus anthracis): MICs at or below the detection limit
- bacterial counts (limit of detection) through 6 h post inoculation [1]: < 33 CFU/mL
- bactericidal effect, overall result in words [1]: substantial bactericidal effect
- detectable CFUs from T2h to T6h [1]: no detectable CFUs
- growth at T24h [1]: no MSHR 305 growth was detected
- kill curve: evolution of microbial load during time [1]: immediate decrease of microbial load after 2 hours
- reduction at T24h as compared with the untreated controls [1]: 1.5 to 2 log10
- reduction at T24h compared with the untreated control [1]: ~2.5 log10
- reduction of final bacterial concentration at T24h as compared with the untreated controls [1]: at least 1.5 log10
- inhibition of growth, result in words (Yersinia pestis): very effective against both strains tested
- MIC (Yersinia pestis; [2]): ≤ 30.3 µg/mL
- MIC (Yersinia pestis; [3]): ≤ 30.3 µg/mL
